Laboratory results from patent US20090305954A1, “HISTIDINE-CONTAINING DIASTEREOMERIC PEPTIDES AND USES THEREOF” (Yeda Research and Development Co. Ltd., priority 2005, published 2009).
Square brackets hold non-standard residues; d marks the D form. Peptide text beside a SMILES is read from it.

What was measured:
[1] = tested on: CL1 human prostate carcinoma cell line; assay: XTT proliferation (cytotoxicity) assay, CL1; type: cell-based
Method: The CL1 human prostate carcinoma (PC) cell line is an androgen-independent (AI) subclone of LNCaP cell line, which was generated by culturing androgen-dependent (AD) LNCaP cells in charcoal-stripped, […], as described (Patel et al. 2000). 22RV1 human PC cells are AI sub-clones of the AD prostatic adenocarcinoma CWR22 xenograft (Sramkoski et al. 1999). CL1 and 22RV1 (ATCC, USA) were grown in RPMI-1640 supplemented with 10% FCS (Biological Industries, Beit Haemek, Israel). PC3 and DU145 are androgen-insensitive (AI) (non-responsive), invasive human prostate cancer cell lines. NIH-3T3 mouse fibroblast cell lines (ATCC, USA) were grown in DMEM supplemented with 10% BS. Murine Lewis lung carcinoma (LLC) cell lines were also grown in DMEM medium supplemented with 10% fetal calf serum and antibiotics under the same conditions as above.
The anticancer activity of the diastereomers 1, 5 and 11-16, 36-39, 42 and 44 was examined against human CL1 prostate cancer, murine LLC (Lewis lung carcinoma), DU 145 and PC3 cell lines. The cell selectivity of the diastereomeric peptides was also studied by examining their effect on NIH-3T3 normal mouse fibroblasts cell line.
A 96-well plate (Falcon) was used for the XTT proliferation assay. Cancer cells were grown for 24 hours (day 1) in RPMI-1640 medium ([…] cells/100 μl for LLC, CL1, 22RVI, DU 145 and PC3, respectively) supplemented with 10% fetal calf serum and antibiotics, at 37° C., in humidified atmosphere at 5% CO2 and 95% air, resulting in growth medium pH of 7.4. NIH-3T3 fibroblast cells (1×10^4 cells/100 μl) were grown in DMEM medium supplemented with 10% bovine calf serum and antibiotics under the same conditions as described above for the cancerous cells. Wells in the last two rows served as blanks (medium only, for measuring the background color of the medium) and 100% survival controls (cells and medium only without treatment), respectively.
In day 2, the peptides were dissolved in sterile PBS to a concentration of 200 μM (or 500 μM). The medium in the assay wells was replaced with 100 μl serum free medium. For the assays at pH 6, the medium was initially concentrated (×5 or ×10) and then diluted with double distilled water and addition of sodium carbonate. Before reaching the correct dilution, the medium was adjusted to pH 6 and then more water was added to reach the final dilution. The cells were grown in physiological pH, and the acidic pH was used only during the 24 hours incubation with the peptides. A sign for the correct acidity was a light yellow color of the medium. In line A of the plate, 160 μl of serum free medium was added, if the initial peptide concentration was 500 μM.
Peptide solutions, 100 μl (or 40 μl) were added to each assay well in line A, such that the final concentration of the peptide was […] and the volume 200 μl. The medium in the wells was mixed with multichannel pipette 5 times and 100 μl of it were transferred to the next row of wells (line B), to give a peptide concentration of 50 μM. The double dilution of the peptides continued downstream the plate in the same manner. The plates were then incubated for 24 h.
In day 3, XTT reaction solution was prepared by adding to 100 μl aliquots of activation solution (sodium 3′-[1-(phenyl-aminocarbonyl)-3,4-tetrazolium]-bis(4-methoxy-6-nitro) benzene sulfonic acid hydrate and N-methyl dibenzopyrazine methyl sulfate; mixed in a proportion of 50:1) (protected from light and kept in −20° C.), the substrate. 50 μl of XTT reaction solution were added to each well and the plates were incubated for 2 hours (37° C. and 5% CO2+95% air. In cases the incubation was not enough for the creation of the color, it was extended for up to 24 hours). The optical density was read at wavelength of 450 nm in an ELISA plate reader. Cell viability was determined relative to the control and final results were recorded. The results were confirmed using replications in at least three independent experiments. […]

[2] = Interaction with Matrigel matrix, analysed by RP-HPLC and mass spectroscopy; type: in vitro ADME; details: mixed with Matrigel matrix for one hour

CC(C)C[C@H](NC(=O)[C@H](CC(C)C)NC(=O)[C@@H](CCCCN)NC(=O)[C@H](CC(C)C)NC(=O)[C@H](CC(C)C)NC(=O)[C@H](Cc1c[nH]cn1)NC(=O)[C@@H](CCCCN)NC(=O)[C@@H](CC(C)C)NC(=O)[C@H](CC(C)C)NC(=O)[C@@H](CCCCN)NC(=O)[C@H](Cc1c[nH]cn1)NC(=O)[C@H](CC(C)C)NC(=O)[C@@H](CC(C)C)NC(=O)[C@H](CCCCN)NC(=O)[C@@H](N)CC(C)C)C(N)=O [Peptide 13] (H-LK[dL]LH[dK]L[dL][dK]HLL[dK]LL-NH2)
potency compared with diastereomer 1 ([1]; CL1, pH 6.0): similarly or significantly more potent | Lethal Concentration (LC50) ([1]; CL1, pH 6, 24 h): 6.25 µg/mL | Lethal Concentration (LC50) ([1]; CL1, pH 7.4, 24 h): 6.25 µg/mL | activity preserved upon interaction with the Matrigel matrix [2]: ~50%
